Experimental data: patent US12029682B2, “Spray ejector mechanisms and devices providing charge isolation and controllable droplet charge, and low dosage volume ophthalmic administration” (EYENOVIA, INC., priority 2012, dated 2024)
Entries after “also recorded” stand apart in the source; their conditions may differ.

Experiments:
Assay type in all cases: in vivo, beagle dog
glaucomatous beagles [1] = assay: Pupil diameter (PD), Jameson Caliper, in glaucomatous beagles
glaucomatous beagles [2] = assay: Ocular irritation observations in glaucomatous beagles
Protocol: Active drug delivery begins on study day eight. For five days, IOP and PD measurements are taken at 0900. Immediately after 0900 measurements (time 0), each animal receives 6 μl of generic latanoprost in its assigned eye with the ejector device, followed by a second dosing 3 minutes later of an additional 6 μl (to avoid overloading the conjunctival sac). The contralateral eye receives a clinical dose (one drop) of the same commercially-available topical drug from FDA approved container (positive control). The ejector device is checked for accuracy before and after every use (Table 1). Standard measurements continue throughout each day (at 0:30, 0:45, 1, 2, 7 hrs). Possible endpoints include, but are not limited to, excessive ocular irritation, ocular damage, or other illness and injury. […]
(§1) On study days 5-9, IOP and PD measurements were taken at approximately 0900 h (time 0). Immediately after these measurements, each animal received 6 μl of 0.03% bimatoprost in its assigned eye via the spray ejector device. The contralateral eye received a clinical dose (one drop) of the same commercially available topical drug from a traditional eyedropper (positive control). The spray ejector device was checked for accuracy before and after every use and required a 10% delivered dose accuracy in pretreatment. Standard measurements continued throughout each day at 0, 1, 2, 4, and 7 hours. Possible endpoints included, but were not limited to, excessive ocular irritation, ocular damage, and other illness or injury. No statistical crossover was utilized for this study.
Ophthalmic examinations (slit lamp with fluorescein and indirect ophthalmoscopy) were performed on the eyes of each animal prior to Study Day 1. Ocular findings were scored according to the McDonald-Shadduck Score System. Ocular findings were recorded using a standardized data collection sheet. Macroscopic observations were recorded in accordance with the Draize Scale for Scoring Ocular Lesions. Animals were assigned treatments based on basic randomization prior to study day one.
Following a 7 day rest period, the eye choice was reversed. Measurements of IOP, heart rate and pupil diameter (PD) were made at 0:15, 0:30, 0:45, 1, 2, 4, 7, and 18 hours in the primary and crossover study. A veterinary ophthalmologist evaluated each test subject before and after the study for evidence of ocular side effects.
Ophthalmic examinations (slit lamp with fluorescein and indirect ophthalmoscopy) were performed on the eyes of each animal prior to study day 1. Ocular findings were scored according to the McDonald-Shadduck score system and macroscopic observations were recorded in accordance with the Draize scale for scoring ocular lesions. Ocular findings were recorded using a standardized data collection sheet.

glaucomatous beagles [3] = assay: Intraocular pressure (IOP), TonoVet, in glaucomatous beagles; settings: for IOP decrease: 6.0 μl at 0.025% via spray ejector device and 0.005% eyedropper had similar results
glaucomatous beagles [4] = assay: as above
Protocol: (§2) One glaucomatous beagle dog (female, aged 3 years) from the University of Florida MacKay Colony of Glaucomatous Beagles was chosen for this study. The animal was rested a minimum of one week before starting the study. Prior to the commencement of the study, the animal was assigned one eye to receive 1.5 μl of 0.005% latanoprost and the contralateral eye to remain untreated as a control. The basic measurement protocol was followed at all times and performed by the same operator. PD was measured via Jameson Caliper (mm horizontally). IOP was measured using a TonoVet instrument with clean probe (iCare). IOP and PD were measured at time 0, 1, 2, 4, 7 and 18 hours daily for two days. Immediately after the time 0 measurement, the animal received 1.5 μl of 0.005% latanoprost in its assigned eye with a spray device. The contralateral eye was left untreated. The spray device was checked for accuracy before and after every use, and required a 10% delivered dose accuracy in pretreatment. Standard measurements continued throughout each day at time 1, 2, 4, 7 and 18 hours. Possible endpoints included, but were not limited to, excessive ocular irritation, ocular damage, and other illness or injury. No statistical crossover was utilized for this study.
as §2, with “study.” for “study. The animal was rested a minimum of one week before starting the study.”, “receive 3.0” for “receive 1.5”, “0 measurements,” for “0 measurement,”, “animal was administered 3.0” for “animal received 1.5”, “eye using” for “eye with”, “spray ejector” for “spray”
All animals were rested for a minimum of one week before starting the trials. IOP and pupil diameter (PD) were measured 5 times (at 0, 1, 2, 4, and 7 hours) daily for four days (study days 1-4) to establish initial baseline levels. The basic measurement protocol was followed at all times and performed by the same operator. PD was measured via Jameson Caliper (mm horizontally). IOP was measured with a TonoVet instrument with clean probe (iCare). After three rest days, one eye was randomly assigned to receive 9 μl of 0.005% latanoprost delivered via a spray ejector device, and the contralateral eye was administered traditional latanoprost from a traditional eyedropper container (26-30 μl).
as §1, with “time 0” for “these”, “a once-daily dose of 9” for “6”, “generic 0.005% latanoprost” for “0.03% bimatoprost”, “study. […]” for “study.”

[5] = 12 μl of 0.005% BID via spray ejector device
[6] = 1.5 μl of 0.005% once daily, spray ejector device, one dog, by hour 2
[7] = 3.0 μl of 0.005% once daily, spray ejector device, one dog, by hour 2

## CC(C)OC(=O)CCC/C=C\C[C@@H]1[C@@H](CC[C@@H](O)CCc2ccccc2)[C@H](O)C[C@@H]1O [latanoprost]
Glaucomatous beagles [1]; [5]
  duration of PD constriction vs eyedropper: remained constricted much longer
Glaucomatous beagles [1]; any point in the study (p=0.943)
  PD: spray ejector device 6.0 μl at 0.025% vs 0.005% eyedropper: no significant differences
Glaucomatous beagles [1]; both treatments (spray ejector device BID, eyedropper), by time 1 hour on most days
  minimum PD: pinpoint
Glaucomatous beagles [1]; by time 1 hour each day, 6.0 μl at 0.025% spray ejector device and 0.005% eyedropper
  PD: 0 mm
Glaucomatous beagles [2]; 0.005%, either treatment (spray ejector device BID, eyedropper)
  ocular irritation, injury, or discomfort: no significant reports of ocular irritation, injury, or discomfort
Glaucomatous beagles [2]; 0.005%, ejector device 12 μl and eyedropper
  excessive eye irritation or other eye issues: no reports of excessive eye irritation or other eye issues
Glaucomatous beagles [2]; 6.0 μl at 0.025% spray ejector device and 0.005% eyedropper
  irritation: Normal irritation caused by prostaglandin analogues was present
Glaucomatous beagles [2]; 9 μl of 0.005% via spray ejector device
  irritation vs eyedropper-treated eyes: less than that observed in the eyedropper-treated eyes
Glaucomatous beagles [2]; [5]
  irritation to the eye with the lower dosage: less irritation to the eye
Glaucomatous beagles [2]; five times (5×) concentration (0.025%) via spray ejector device
  irritation vs eyedropper administration: no more irritation than that occurring following eyedropper administration
Glaucomatous beagles [2]; traditional treatment eyes (eyedropper), related to prostaglandin use
  conjunctival irritation: Some conjunctival irritation was noted
Glaucomatous beagles [3]; 0.005%, one drop (26-30 μl) by eyedropper
  duration of action vs spray ejector device: greater
Glaucomatous beagles [3]; [6]
  maximum decrease in IOP from the initial value: 16 mmHg
Glaucomatous beagles [3]; [7]
  IOP in the treated eye: 19 mmHg
Glaucomatous beagles [3]; 3.0 μl of 0.005% via spray ejector device
  effectiveness at lowering IOP and constricting the pupil vs traditional eyedropper therapy: as effective at lowering IOP and constricting the pupil as traditional eyedropper therapy
Glaucomatous beagles [3]; 9 μl of 0.005% once daily via spray ejector device
  IOP values vs baseline: significantly lower than baseline
Glaucomatous beagles [3]; [5]
  average daily change / average fluctuation in IOP (maximum minus minimum): 7.6 mmHg
  average fluctuation in IOP: 30%
  morning IOP spike compared to eyedropper delivery: consistently prevented the anticipated morning IOP spike
Glaucomatous beagles [3]; 12 μl of 0.005% BID via spray ejector device, day 8
  maximum IOP: 17.2±3.0 mmHg
Glaucomatous beagles [3]; 12 μl of 0.005% BID via spray ejector device, day 8, hour 7
  minimum IOP: 13.6±1.2 mmHg
Glaucomatous beagles [3]; 12 μl of 0.005% BID via spray ejector device, day 9
  maximum IOP: 26.2±6.3 mmHg
Glaucomatous beagles [3]; 12 μl of 0.005% BID via spray ejector device, day 9, hour 4
  minimum IOP: 16.2±1.5 mmHg
Glaucomatous beagles [3]; 12 μl of 0.005% BID via spray ejector device, day 10
  maximum IOP: 27.5±3.5 mmHg
Glaucomatous beagles [3]; 12 μl of 0.005% BID via spray ejector device, day 10, hour 4
  minimum IOP: 14.0±1.3 mmHg
Glaucomatous beagles [3]; 12 μl of 0.005% BID via spray ejector device, day 11
  maximum IOP: 26.5±2.8 mmHg
Glaucomatous beagles [3]; 12 μl of 0.005% BID via spray ejector device, day 11, hour 7
  minimum IOP: 14.7±0.9 mmHg
Glaucomatous beagles [3]; 30 μl of 0.005% once daily via spray ejector device, 2 dogs
  effectiveness at lowering/controlling IOP vs traditional eyedropper therapy: as effective at lowering IOP and constricting the pupil as the traditional eyedropper therapy; also recorded: as effective in controlling IOP as traditional eyedropper therapy
Glaucomatous beagles [3]; 30 μl of 0.005% via spray ejector device, pilot study
  duration of action vs eyedropper: trend toward increased duration of action
Glaucomatous beagles [3]; any point in the study (p=0.823)
  IOP: spray ejector device 6.0 μl at 0.025% vs 0.005% eyedropper: no significant differences; also recorded: statistically equivalent
Glaucomatous beagles [3]; first day of the study
  IOP decrease: approximately 45.4 mmHg
Glaucomatous beagles [3]; one drop of 0.005% by eyedropper, over the 5 days of the study
  maximum decrease in IOP: 27.5 mmHg
Glaucomatous beagles [3]; subsequent days
  IOP decrease: ~24.7 mmHg
Glaucomatous beagles [4]; [6]
  IOP in the treated eye: 11 mmHg
Glaucomatous beagles [4]; 1.5 μl of 0.005% via Whisper MDD
  effectiveness at lowering IOP and constricting the pupil vs traditional therapy: as effective at lowering IOP and constricting the pupil as traditional therapy
Glaucomatous beagles [4]; 3.0 μl of 0.005% once daily, spray ejector device, one dog
  time of maximum decrease in IOP: hour 7 on day 2
Glaucomatous beagles [4]; [7]
  decrease in IOP from the initial value: 12 mmHg
Glaucomatous beagles [4]; 9 μl of 0.005% once daily via spray ejector device vs one drop (26-30 μl), 5 days, 7-hour period
  effectiveness at lowering/controlling IOP vs traditional eyedropper therapy: as effective at lowering IOP and constricting the pupil as traditional therapy; also recorded: as effective at controlling IOP as traditional eyedropper therapy
Glaucomatous beagles [4]; 12 μl of 0.005% BID via spray ejector device, study day 7 (first day of instillation)
  maximum decrease in IOP: 28 mmHg
Glaucomatous beagles [4]; 12 μl of 0.005% BID via spray ejector device, study day 7, hour 7
  IOP level: 15.5±2.2 mmHg
Glaucomatous beagles [4]; one drop of 0.005% by eyedropper
  average daily change in IOP (maximum minus minimum): 14.6 mmHg
Glaucomatous beagles [4]; two 6 μl doses of 0.005% via ejector device vs one drop by eyedropper
  IOP: ejector device treatment vs traditional treatment: no significant differences; also recorded: statistically indistinguishable
